Test results published in the NIST ThermoML archive (doi:10.1016/j.fluid.2007.05.029).

Test: xn = mol fraction of the nth substance listed

OCCCCCCO [1,6-hexanediol] + O
surface tension liquid-gas [mN/m]
Conditions | 283.15 K | 288.15 K | 293.15 K | 298.15 K | 303.15 K | 308.15 K
x1 = 0.0013 | 63.8 | 63.1 | 62.3 | 62 | 61.1 | 60.6
x1 = 0.0017 | 62.5 | 61.8 | 61.2 | 60.4 | 59.7 | 58.8
x1 = 0.0021 | 61.5 | 60.7 | 60.3 | 59.4 | 58.5 | 57.6
x1 = 0.0029 | 60 | 59.2 | 58.6 | 57.5 | 56.8 | 56
x1 = 0.0057 | 56.9 | 55.7 | 55 | 53.8 | 53.3 | 52.4
x1 = 0.007 | 55.1 | 54.3 | 53.4 | 52.1 | 51.7 | 50.9
x1 = 0.0089 | 53.3 | 52.4 | 51.4 | 50.2 | 50 | 49.4
x1 = 0.014 | 50.6 | 49.4 | 49.1 | 48.3 | 48.3 | 47.2
x1 = 0.0159 | 49.4 | 48.6 | 48 | 47.5 | 47 | 46.6
x1 = 0.0237 | 48.5 | 47.6 | 47 | 46.5 | 46.1 | 45.8
x1 = 0.0373 | 46.1 | 45.7 | 45.4 | 45 | 44.5 | 44.2
x1 = 0.0463 | 44.4 | 44.1 | 43.9 | 43.6 | 43.3 | 43
x1 = 0.0545 | 43.7 | 43.4 | 43.2 | 42.9 | 42.5 | 42.2
x1 = 0.0742 | 43.5 | 43.3 | 43 | 42.8 | 42.4 | 42.1
x1 = 0.098 | 43.4 | 43.1 | 42.9 | 42.7 | 42.4 | 42.1
x1 = 0.1165 | 43.4 | 43.1 | 42.8 | 42.6 | 42.3 | 42

O [water] + CC(O)CCC(C)O
x2 = 0
Conditions | surface tension liquid-gas [mN/m]
283.15 K | 74.1
288.15 K | 73.4
293.15 K | 72.6
298.15 K | 71.8
303.15 K | 71
308.15 K | 70.2

CC(O)CCC(C)O (stereo not drawn) [2,5-hexanediol] + O
surface tension liquid-gas [mN/m]
Conditions | 283.15 K | 288.15 K | 293.15 K | 298.15 K | 303.15 K | 308.15 K
x1 = 0.001 | 68.5 | 67.9 | 67.7 | 67.2 | 66.6 | 65.9
x1 = 0.0027 | 60.2 | 59.6 | 59.1 | 58.6 | 57.9 | 57.3
x1 = 0.0037 | 56.9 | 56.3 | 55.6 | 55.2 | 54.7 | 54.2
x1 = 0.0068 | 53.5 | 52.9 | 52.3 | 51.6 | 51.2 | 50.7
x1 = 0.0088 | 51.6 | 51 | 50.3 | 49.5 | 48.6 | 48
x1 = 0.0103 | 50 | 49.4 | 49.2 | 48.7 | 48.2 | 47.8
x1 = 0.0135 | 47.9 | 47.5 | 47.2 | 46.8 | 46.3 | 45.8
x1 = 0.0168 | 46.1 | 45.7 | 45.5 | 45.2 | 44.9 | 44.6
x1 = 0.0263 | 43.4 | 43.2 | 42.7 | 42.1 | 41.6 | 41.3
x1 = 0.037 | 41.5 | 41.1 | 40.4 | 40 | 39.7 | 39.2
x1 = 0.0462 | 40.4 | 40.1 | 39.7 | 39 | 38.7 | 38.2
x1 = 0.063 | 39.1 | 38.6 | 38.1 | 37.4 | 37.1 | 36.6
x1 = 0.0808 | 38.5 | 38 | 37.5 | 37 | 36.5 | 36.2
x1 = 0.096 | 38.3 | 37.8 | 37.3 | 36.8 | 36.3 | 36
x1 = 0.1117 | 37.7 | 37.2 | 36.9 | 36.2 | 35.9 | 35.6
x1 = 1 | 32.3 | 32 | 31.9 | 31.6 | 31.3 | 31

O [water] + OCCCCCCO
x2 = 0
Conditions | surface tension liquid-gas [mN/m]
283.15 K | 74.1
288.15 K | 73.4
293.15 K | 72.6
298.15 K | 71.8
303.15 K | 71
308.15 K | 70.2

CC(O)CCCCO (stereo not drawn) [1,5-hexanediol] + O
surface tension liquid-gas [mN/m]
Conditions | 283.15 K | 288.15 K | 293.15 K | 298.15 K | 303.15 K | 308.15 K
x1 = 0.001 | 65.3 | 65 | 63.8 | 62.8 | 62.3 | 61.2
x1 = 0.0021 | 58.3 | 57.6 | 56.9 | 56.1 | 55.7 | 55
x1 = 0.0037 | 55.3 | 54.7 | 54.2 | 53.6 | 52.9 | 52.4
x1 = 0.0053 | 53 | 52.5 | 51.7 | 51.2 | 50.6 | 50.3
x1 = 0.0071 | 51 | 50.4 | 49.9 | 49.3 | 48.8 | 48.5
x1 = 0.0089 | 50 | 49.2 | 48.6 | 47.9 | 47.3 | 47
x1 = 0.0111 | 47.5 | 46.7 | 46.4 | 46 | 45.7 | 45
x1 = 0.0145 | 45.3 | 44.7 | 44.5 | 43.8 | 43.4 | 42.9
x1 = 0.0194 | 43 | 42.2 | 41.3 | 40.3 | 39.8 | 38.6
x1 = 0.0324 | 39.7 | 39.1 | 38.6 | 38 | 37.5 | 37
x1 = 0.0507 | 38 | 37.3 | 36.9 | 36.6 | 35.7 | 35
x1 = 0.0738 | 36.9 | 36.5 | 36.1 | 35.8 | 34.9 | 34.4
x1 = 1 | 34.6 | 34.3 | 34.1 | 33.9 | 33.7 | 33.5

O [water] + CC(O)CCCCO
x2 = 0
Conditions | surface tension liquid-gas [mN/m]
283.15 K | 74.1
288.15 K | 73.4
293.15 K | 72.6
298.15 K | 71.8
303.15 K | 71
308.15 K | 70.2
